Consider 37 compounds from patent US4822791A, “Pharmaceutical compositions of-2,2-1,1-[bis-2,2'-(3,1-benzoxazin-4-one)9 ethylenes” (priority 1984, dated 1989).

Broadly, the pIC50 is the negative decadic logarithm of the IC50, by convention in mol/L. As usually defined, the IC20 is the concentration at which the effect reaches the 20% level. By IC10 is commonly meant the point of the concentration-response curve where the effect stands at 10%. One may read the IC50 as the concentration that inhibits the measured activity by half. A high value points to weaker potency in that assay.

pIC50: −log10 of the molar value. Where two headings read alike, the source gives them in different places.

The target of assay [1] is T1, hyaluronidase (Bos taurus, UniProt Q2YDK3).
T1 sequence (Q2YDK3 36-553): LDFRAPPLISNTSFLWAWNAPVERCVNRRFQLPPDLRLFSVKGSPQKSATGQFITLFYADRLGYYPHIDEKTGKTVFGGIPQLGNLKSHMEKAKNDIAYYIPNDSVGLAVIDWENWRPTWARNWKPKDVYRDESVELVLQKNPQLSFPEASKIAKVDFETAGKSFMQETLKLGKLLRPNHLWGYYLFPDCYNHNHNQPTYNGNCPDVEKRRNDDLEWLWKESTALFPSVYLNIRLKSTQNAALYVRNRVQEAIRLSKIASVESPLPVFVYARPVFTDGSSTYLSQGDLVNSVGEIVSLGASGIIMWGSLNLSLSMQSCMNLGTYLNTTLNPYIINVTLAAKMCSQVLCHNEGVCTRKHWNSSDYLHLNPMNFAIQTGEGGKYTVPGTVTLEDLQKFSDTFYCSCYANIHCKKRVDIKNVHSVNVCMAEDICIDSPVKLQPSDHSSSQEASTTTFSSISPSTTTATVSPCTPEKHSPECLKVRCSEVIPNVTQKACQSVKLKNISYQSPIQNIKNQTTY
In words: Anti-hyaluronidase activity (modified Morgan-Elson method). Format: biochemical. As to conditions: for pIC50: read-out: IC50; for IC20: value marked (IC20), read-out: IC20 (printed in IC50 (mM) column); for IC10: value marked (IC10), read-out: IC10 (printed in IC50 (mM) column).
Method: A buffer soluticn of hyaluronidase (0.1 ml) was taken in a test tube and 0.2 ml each of the buffer solution of various compounds in various concentrations was added, and the mixture was preincubated at 37° C. for 20 minutes. Then, an activating agent (Compound 48/80 or CaCl2) (0.2 ml) was added to make the total amount 0.5 ml, which was incubated at 37° C. for 20 minutes. Then, potassium hyaluronate buffer solution (0.5 ml) was added, and the mixture was incubated at 37° C. for 40 minutes. After cooling, the mixture was treated with aqueous solution of 0.4N NaOH (0.2 ml) and neutralized to stop the reaction. The resulting product was subjecred to measurement of OD585 by the modified Morgan-Elson Method. […] (The final ccncentration of hyaluronidase was 340NF unit/ml.) [formula]

Assay [2] has as its system experimental ulcer model (Shay). Description: Anti-ulcer activity in experimental ulcer model (Shay). In kind it is in vivo, Wistar strain male rats. The protocol:
Using 5 eight-week old Wistar strain male rats of 1 group, the rats were previously fasted for […]. The compound of an amount proportionate to the body weight based on the body weight after fasting was administered intraduodenally or intraperitoneally.
Each test compound was evenly suspended or dissolved in an aqueous solution of 0.5% CMC ccntaining 0.1% Tween 80, and administered at the rate of 0.5 ml per 100 g of body weight of the animal. To the controls, only the solvent was administered.
Test was carried out in accordance with Shay's method. After 48 hours' fasting, 5 animals per group were subjected to laparotomy under ether anesthesia, the tract between pylorus of stomach and duodenum was ligated, and the solution of the compound was administered intraduodenally (id) or intraperitoneally (ip), followed by suturing the laparotomy part. Eight hours after administration of the compound liquid, each animal was sacrificed by ether anesthesia and stomach was removed. Then, evaluation on the ulcer condition on the inner surface of stomach, and determination of the amount of gastric juice, of acidity by alkali titration, and of pepsin titer based on substrate of hemoglovin were made on the stored gastric juice. With regard to the acidity, gastric juice amount, and pepsin titer, the results were shown in inhibition rate (%) based on the average value of the control groups.

Assay [3] has as its system passive cutaneous anaphylaxis (PCA). Description: Anti-passive cutaneous anaphylaxis (PCA) activity in rats (Test Example 2). Format: in vivo, Wistar strain rats. As to conditions: Rattus norvegicus, N 10; for inhibition in vivo at 50 mg/kg: 50 mg/kg PO; for inhibition in vivo at 100 mg/kg: 100 mg/kg PO. The protocol:
Wistar strain rats were sensitized with ovalbumin using aluminium hydroxide gel and Bordetella Pertussis vaccine as adjuvants. Dilutions of antiserum (16-fold and 32-fold) obtained by collecting blood samples 14 days later were administered subcutaneously in the dorsal skin of the rats of the same strain at the rate of 0.1 ml per spot, and the rats were grown for 48 hours. One hour after peroral administration of the sample solution, a mixture of antigen ovalbumin and Evans-blue dye was administered to the tail venous of the animal according to the ordinary procedure. Thirty minutes later, the animals were sacrificed by exsanguination, and the areas of blue spots (long diameter×short diameter) eliciting on the portion of the antiserum injection at the dorsal skin were measured to obtain the rate of inhibition based on the average value shown by the control animals.

Where [4] appears, read: hyaluronidase 340NF unit/ml, activating agent Compound 48/80 or CaCl2.
Where [5] appears, read: read-out: Average Inhibition Rate (%) Antiserum Dilution: × 16.
Where [6] appears, read: read-out: Average Inhibition Rate (%) Antiserum Dilution: × 32.

On to `O=C(Nc1ccccc1C(=O)O)C(=Cc1ccccc1)C(=O)Nc1ccccc1C(=O)O`, for which, in assay [1] (setting [4]), the pIC50 was 4.46.

As to `O=C(Nc1ccccc1C(=O)O)C(=Cc1ccc2c(c1)OCO2)C(=O)Nc1ccccc1C(=O)O` [Compound 25], the results for the “Inhibition % Gastric Acidity” value in assay [2] (id 100 mg/kg), in assay [2] (id 200 mg/kg) and in assay [2] (ip 50 mg/kg) were 45.2%, 80.0% and 67.4%, respectively. In addition, the “Inhibition % secretion amount of gastric juice” value (shortened to “Inhibition % secretion amount”) in assay [2] (id 100 mg/kg) stood at 25.5%; in assay [2] (id 200 mg/kg) it was 50.7%; in assay [2] (ip 50 mg/kg) it was 53.4%. The “Inhibition % total pepsin titer” value in assay [2] (id 100 mg/kg) amounted to 32.1%; in assay [2] (id 200 mg/kg), 40.5%; in assay [2] (ip 50 mg/kg), 82.2%. Moreover, in assay [1] (setting [4]), the pIC50 was 4.89.

On to `O=C(CC(=O)Nc1cccc(C(=O)O)c1)Nc1cccc(C(=O)O)c1` [Compound 02], for which, in assay [1], the IC20 was 0.9 mM.

In the case of `O=C(Nc1ccccc1C(=O)O)C(=Cc1ccccc1Cl)C(=O)Nc1ccccc1C(=O)O` [Compound 32], in assay [1] (setting [4]), the negative-log IC50 (pIC50) is 4.60.

Take `O=C(Nc1ccccc1C(=O)O)C(=Cc1ccc(F)cc1)C(=O)Nc1ccccc1C(=O)O` [Compound 34]: the negative logarithm of the IC50 (pIC50) in assay [1] (setting [4]) was 4.60.

For the compound `COc1ccc(C(=O)O)cc1NC(=O)C(=Cc1ccccc1)C(=O)Nc1cc(C(=O)O)ccc1OC` [Compound 18], in assay [1], the concentration for an effect of 10% (IC10) came to 0.29 mM.

In the case of `COc1cc(C=C(C(=O)Nc2ccccc2C(=O)O)C(=O)Nc2ccccc2C(=O)O)cc(OC)c1OC` [Compound 23], in assay [2] (id 100 mg/kg), the “Inhibition % Gastric Acidity” value worked out at 32.5%, the “Inhibition % secretion amount” value is recorded as 8.5% and the “Inhibition % total pepsin titer” value worked out at 31.1%. Further, in assay [2] (id 200 mg/kg), the “Inhibition % Gastric Acidity” value is listed as 40.2%, the “Inhibition % secretion amount” value was determined as 11.2% and the “Inhibition % total pepsin titer” value turned out to be 41.2%. The pIC50 in assay [1] (setting [4]) is 4.52.

As for `O=C(Nc1ccccc1C(=O)O)C(=Cc1ccsc1)C(=O)Nc1ccccc1C(=O)O` [Compound 41, 2,2'-[(1,3-dioxo-2-(3-thienyl)methylene-1,3-propanediyl)diimino]bisbenzoicacid], in assay [1] (setting [4]), the pIC50 is 4.22.

On to `O=C(Nc1cc(Cl)ccc1C(=O)O)C(=Cc1ccccc1)C(=O)Nc1cc(Cl)ccc1C(=O)O` [Compound 15], for which the pIC50 in assay [1] (setting [4]) is 4.26.

Take `O=C(CC(=O)Nc1ccccc1C(=O)O)Nc1ccccc1C(=O)O` [Compound 01, 2,2'-[(1,3-dioxo-1.3-propanediyl)diimino]bisbenzoic acid]: in assay [1] (setting [4]), the pIC50 is 4.11.

On to `O=C(Nc1ccccc1C(=O)O)C(=Cc1ccc[nH]1)C(=O)Nc1ccccc1C(=O)O` [Compound 42], for which the negative-log IC50 (pIC50) in assay [1] (setting [4]) was 4.60.

For the compound `O=C(Nc1ccccc1C(=O)O)C(=Cc1ccco1)C(=O)Nc1ccccc1C(=O)O` [Compound 39], in assay [1] (setting [4]), the negative-log IC50 (pIC50) was 4.40.

In assay [1] (IC50 (mM), hyaluronidase 340NF unit/ml, activating agent Compound 48/80 or CaCl2), `O=C(Nc1cc([N+](=O)[O-])ccc1C(=O)O)C(=Cc1ccccc1)C(=O)Nc1cc([N+](=O)[O-])ccc1C(=O)O` [Compound 16] came in with an IC50 of 0.01 mM. For the same compound, in assay [3] (setting [5]), the inhibition in vivo at 50 mg/kg came to 3.2% and the inhibition in vivo at 100 mg/kg turned out to be 11.8%. In assay [3] (setting [6]), the inhibition in vivo at 50 mg/kg amounted to 9% and the inhibition in vivo at 100 mg/kg turned out to be 12.2%.

As for `COc1ccc(C=C(C(=O)Nc2ccccc2C(=O)O)C(=O)Nc2ccccc2C(=O)O)cc1` [Compound 19], the pIC50 in assay [1] (setting [4]) is 4.89.

As for `Cn1cc(C=C(C(=O)Nc2ccccc2C(=O)O)C(=O)Nc2ccccc2C(=O)O)c2ccccc21` [Compound 45], the pIC50 in assay [1] (setting [4]) is 5.00.

On to `CC(C)c1ccc(C=C(C(=O)Nc2ccccc2C(=O)O)C(=O)Nc2ccccc2C(=O)O)cc1` [Compound 27], for which the pIC50 in assay [1] (setting [4]) was 4.52.

As for `CNC(=C[N+](=O)[O-])NCCSCc1ccc(CN(C)C)o1` [Ranitidine, reference compound], in assay [2] (id 30 mg/kg), the “Inhibition % Gastric Acidity” value is on record as 63.0%, the “Inhibition % secretion amount” value was determined as 25.2% and the “Inhibition % total pepsin titer” value was found to be 20.6%.

For `O=C(Nc1ccccc1C(=O)O)C(=Cc1cccc2ccccc12)C(=O)Nc1ccccc1C(=O)O` [Compound 38], the negative-log IC50 (pIC50) in assay [1] (setting [4]) was 4.64.

Consider `Cc1ccc(NC(=O)C(=Cc2ccccc2)C(=O)Nc2ccc(C)cc2C(=O)O)c(C(=O)O)c1` [Compound 17], for which, in assay [1] (setting [4]), the pIC50 was 3.85.

Consider `O=C(Nc1cccc(C(=O)O)c1)C(=Cc1ccccc1)C(=O)Nc1cccc(C(=O)O)c1` [Compound 12], for which the pIC50 in assay [1] (setting [4]) was 4.19.

With `Cc1ccc(NC(=O)CC(=O)Nc2ccc(C)cc2C(=O)O)c(C(=O)O)c1` [Compound 07], in assay [1], the IC10 stood at 0.66 mM and the IC20 stood at 0.72 mM.

In the case of `CN(C)c1ccc(C=C(C(=O)Nc2ccccc2C(=O)O)C(=O)Nc2ccccc2C(=O)O)cc1` [Compound 28], in assay [1] (setting [4]), the pIC50 was 3.96.

For the compound `O=C(Nc1ccccc1C(=O)O)C(=Cc1ccc(C(F)(F)F)cc1)C(=O)Nc1ccccc1C(=O)O` [Compound 35], in assay [1] (setting [4]), the pIC50 is 4.82.

In the case of `O=C(Nc1ccccc1C(=O)O)C(=Cc1ccc(Br)cc1)C(=O)Nc1ccccc1C(=O)O` [Compound 33], in assay [1] (setting [4]), the negative logarithm of the IC50 (pIC50) was 4.82.

For `O=C(Nc1ccccc1C(=O)O)C(=Cc1ccccc1)C(=O)Nc1cc(Cl)ccc1C(=O)O` [Compound 46, 4-chloro-2,2'-[(1,3-dioxo-2-phenylmethylene-1,3-propanediyl)diimimo]bisbenzoic acid], in assay [1] (setting [4]), the pIC50 was 4.52.

For `O=C(O)c1ccccc1NC(=O)C(Cc1ccccc1)C(=O)Nc1ccccc1C(=O)O` [Compound 50, 2,2'-[(1,3-dioxo-2-phenylmethyl-1,3-propanediyl)diimino]bisbenzoic acid], the pIC50 in assay [1] (setting [4]) was 4.30.

Regarding `O=C(CC(=O)Nc1cc(Cl)ccc1C(=O)O)Nc1ccccc1C(=O)O` [Compound 09, 4-chloro-2,2'-[(1,3-dioxo-1,3propanediyl)diimino]bisbenzoic acid], the pIC50 in assay [1] (setting [4]) is 3.87.

For the compound `O=C(Nc1ccccc1C(=O)O)C(=Cc1ccc([N+](=O)[O-])cc1)C(=O)Nc1ccccc1C(=O)O` [Compound 36, 2,2'-[[1,3-dioxo-2-(4-nitro)phenylmethylene-1,3-propanediyl]diimino]bisbenzoic acid], the negative-log IC50 (pIC50) in assay [1] (setting [4]) was 4.60.

`O=C(CC(=O)Nc1cc(Cl)ccc1C(=O)O)Nc1cc(Cl)ccc1C(=O)O` [Compound 05]: the concentration for an effect of 10% (IC10) in assay [1] amounted to 1.32 mM.

With `O=C(Nc1ccc(C(=O)O)cc1)C(=Cc1ccccc1)C(=O)Nc1ccc(C(=O)O)cc1` [Compound 13], the pIC50 in assay [1] (setting [4]) was 4.26.

As for `O=C(Nc1ccccc1C(=O)O)C(=Cc1cccs1)C(=O)Nc1ccccc1C(=O)O` [Compound 40, 2,2'-[[1,3-dioxo-2-{2-thienyl)methylene-1,3-propanediyl]diimino]bisbenzoicacid], the pIC50 in assay [1] (setting [4]) is 4.46.

In the case of `O=C(Nc1ccccc1C(=O)O)C(=Cc1cccnc1)C(=O)Nc1ccccc1C(=O)O` [Compound 44], the pIC50 in assay [1] (setting [4]) was 4.14.

On to `O=C(Nc1ccccc1C(=O)O)C(=Cc1cccc(Cl)c1)C(=O)Nc1ccccc1C(=O)O` [Compound 31], for which, in assay [1] (setting [4]), the pIC50 is 4.60.

For `COc1ccc(C(=O)O)cc1NC(=O)CC(=O)Nc1cc(C(=O)O)ccc1OC` [Compound 08], the IC10 in assay [1] stood at 0.22 mM.

For `Cn1cccc1C=C(C(=O)Nc1ccccc1C(=O)O)C(=O)Nc1ccccc1C(=O)O` [Compound 43, 2,2'-[(1,3-dioxo-2-(1-methyl-1H-pyrrol-2-yl)methylene-1,3-propanediyl)diimino]bisbenzoic acid], the negative logarithm of the IC50 (pIC50) in assay [1] (setting [4]) is 4.40.

On to `CCOC(=O)c1ccccc1NC(=O)CC(=O)Nc1ccccc1C(=O)OCC` [Compound 04], for which, in assay [1], the IC10 is 0.015 mM.

`N#Cc1ccc(C=C(C(=O)Nc2ccccc2C(=O)O)C(=O)Nc2ccccc2C(=O)O)cc1` [Compound 37]: in assay [1] (setting [4]), the pIC50 is 4.77.
